Tests used:
[1] = test system: HIV; assay: Anti-HIV activity (MT-4 cells, MTT); type: cell-based; conditions: Human immunodeficiency virus 1, MT4, 96 h, cultured 4 days
Summary of the method: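 MT-4 cells (2.5×10^5 cells/mL) mixed with serial dilutions of test sample and HIV, cultured 4 days in CO2 incubator. MTT added for 1 h, cells lysed, absorbance read at 560 nm and 690 nm.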

[2] = Clearance evaluation test; type: in vivo; conditions: rat, plasma, 1 umol/kg, rats, intravenous 1 μmol/kg
Text: Experimental Material and Method (1) Animals used: rats were used. (2) Rearing conditions: the rats were allowed to freely take solid feed and sterilized tap water. (3) Dose and grouping setting: a predetermined dose was intravenously administered. Groups were set as follows: Intravenous administration: 1 μmol/kg (n=2) (4) Preparation of dosing solution: the test sample was solubilized using a solvent of dimethyl sulfoxide/propylene glycol=1/1 and administered. (5) Administration method: the test sample was administered to the tail vein through a syringe with an injection needle. (6) Evaluation item: blood was collected over time, and the concentration of the compound of the present invention in plasma was measured using LC/MS/MS. (7) Statistical analysis: total body clearance (CLtot) and elimination half-life (t½) were calculated as to change in the concentration of the compound of the present invention in plasma by the moment analysis method.

[3] = test system: HIV mutant strain 1 (E138K/G140S/Q148H/N155H); assay: Resistance evaluation test (HeLa-CD4 reporter), mutant strain 1; type: cell-based; conditions: FC=EC50 of mutant strain/EC50 of wild strain, HeLa-CD4 cells
Protocol: (§1) Serial dilutions of a test sample were prepared in a96-well microplate (50 μL/well). 2.5×10^5 cells/mL of a HeLa-CD4 cell suspension was dispensed at 100 μL/well to the plate containing the test sample. Then, an HIV virus solution (wild strain and mutant strain) was dispensed at 50 μL/well. The plate was mixed with a plate mixer and cultured for 3 days in a CO2 incubator. The culture supernatant in each well was removed by suction. A cell lysis buffer in a reporter assay kit was dispensed at 100 μL/well, and the plate was frozen in a freezer (−80° C.). The plate frozen in a freezer was thawed at room temperature, then mixed with a plate mixer, and centrifuged at 1,200 rpm for 5 minutes. The supernatant of each well was dispensed at 20 μL/well to a 96-well microplate (BLACK). A chemiluminescent reagent in the reporter assay kit was dispensed at 100 μL/well and reacted at room temperature for approximately 1 hour. Then, luminescence intensity was measured using MicroBeta TRILUX. […] FC=EC50 of mutant strain/EC50 of wild strain (Results) FC for the mutant strain 1 (E138K/G140S/Q148H/N155H) and FC for the mutant strain 2 (E92Q/E138T/G140S/Q148H) are shown in the table.

[4] = Metabolic stability test; type: in vitro ADME, human; parameters: key: % remaining vs amount at 0 min (=100%); conditions: compound 0.5 μmol/L, human liver microsomes 0.5 mg protein/mL, NADPH, 37° C., 30 minutes; amount at 0 minutes defined as 100%
Protocol: Commercially available pooled human liver microsomes were reacted with the compound of the present invention for a certain time. A residual rate was calculated by the comparison between the reacted sample and an unreacted sample to evaluate the degree at which the compound of the present invention is metabolized in the liver. A reaction was performed (oxidative reaction) at 37° C. for 0 minutes or 30 minutes in the presence of 1 mmol/L NADPH in 0.2 mL of a buffer (50 mmol/L Tris-HCl pH 7.4, 150 mmol/L potassium chloride, 10 mmol/L magnesium chloride) containing 0.5 mg protein/mL of human liver microsomes. After the reaction, 50 μL of the reaction solution was added to 100 μL of a solution of methanol/acetonitrile=1/1 (v/v) and mixed, and the mixture was centrifuged at 3000 rpm for 15 minutes. The compound of the present invention in the centrifugation supernatant was quantified by LC/MS/MS or solid-phase extraction (SPE)/MS. The amount of the compound of the present invention remaining after the reaction was calculated with the amount of the compound at 0 minutes of the reaction defined as 100%.

[5] = test system: HIV mutant strain 2 (E92Q/E138T/G140S/Q148H); assay: Resistance evaluation test (HeLa-CD4 reporter), mutant strain 2; type: cell-based; conditions: FC=EC50 of mutant strain/EC50 of wild strain, HeLa-CD4 cells
Protocol: as §1

[6] = test system: HIV mutant strain (T97A/E138T/G140S/Q148H); assay: Resistance evaluation test (HeLa-CD4 reporter), mutant strain T97A/E138T/G140S/Q148H; type: cell-based; conditions: FC=EC50 of mutant strain/EC50 of wild strain; HeLa-CD4 cells
[7] = target: Voltage gated sodium channel (Nav 1.5 channel) (Homo sapiens, UniProt Q14524); conditions: pH 7.4
Text: For the purpose of assessing risk of arrhythmogenesis of the compound of the present invention, effects of the compound of the present invention on Na^+ current (INa), which plays an important role in the depolarization process of myocardium, was studied using HEK cells expressing Voltage gated sodium channel (Nav 1.5 channel) encoded by SCN5A gene. A cell is retained at a membrane potential of −100 mV by the whole cell patch clamp method using an automated patch clamp system (QPatch; Sophion Bioscience A/S), then INa induced by depolarization stimulation at −10 mV for 20 milliseconds, was recorded. […] From the obtained INa, an absolute value of the maximum peak current was measured based on the current value at the resting membrane potential using analysis software (QPatch Assay software; Sophion Bioscience A/S). The maximum peak current at the time of the application of the compound of the present invention with respect to the maximum peak current at the time of the application of the vehicle was further calculated to evaluate the influence of the compound of the present invention on INa.

[8] = test system: HIV mutant strain 3 (E92Q/E138K/G140S/Q148H); assay: Resistance evaluation test (HeLa-CD4 reporter), mutant strain 3; type: cell-based; conditions: FC=EC50 of mutant strain/EC50 of wild strain, HeLa-CD4 cells
Protocol: as §1

Sequence of Voltage gated sodium channel (Nav 1.5 channel) (Q14524 whole entry): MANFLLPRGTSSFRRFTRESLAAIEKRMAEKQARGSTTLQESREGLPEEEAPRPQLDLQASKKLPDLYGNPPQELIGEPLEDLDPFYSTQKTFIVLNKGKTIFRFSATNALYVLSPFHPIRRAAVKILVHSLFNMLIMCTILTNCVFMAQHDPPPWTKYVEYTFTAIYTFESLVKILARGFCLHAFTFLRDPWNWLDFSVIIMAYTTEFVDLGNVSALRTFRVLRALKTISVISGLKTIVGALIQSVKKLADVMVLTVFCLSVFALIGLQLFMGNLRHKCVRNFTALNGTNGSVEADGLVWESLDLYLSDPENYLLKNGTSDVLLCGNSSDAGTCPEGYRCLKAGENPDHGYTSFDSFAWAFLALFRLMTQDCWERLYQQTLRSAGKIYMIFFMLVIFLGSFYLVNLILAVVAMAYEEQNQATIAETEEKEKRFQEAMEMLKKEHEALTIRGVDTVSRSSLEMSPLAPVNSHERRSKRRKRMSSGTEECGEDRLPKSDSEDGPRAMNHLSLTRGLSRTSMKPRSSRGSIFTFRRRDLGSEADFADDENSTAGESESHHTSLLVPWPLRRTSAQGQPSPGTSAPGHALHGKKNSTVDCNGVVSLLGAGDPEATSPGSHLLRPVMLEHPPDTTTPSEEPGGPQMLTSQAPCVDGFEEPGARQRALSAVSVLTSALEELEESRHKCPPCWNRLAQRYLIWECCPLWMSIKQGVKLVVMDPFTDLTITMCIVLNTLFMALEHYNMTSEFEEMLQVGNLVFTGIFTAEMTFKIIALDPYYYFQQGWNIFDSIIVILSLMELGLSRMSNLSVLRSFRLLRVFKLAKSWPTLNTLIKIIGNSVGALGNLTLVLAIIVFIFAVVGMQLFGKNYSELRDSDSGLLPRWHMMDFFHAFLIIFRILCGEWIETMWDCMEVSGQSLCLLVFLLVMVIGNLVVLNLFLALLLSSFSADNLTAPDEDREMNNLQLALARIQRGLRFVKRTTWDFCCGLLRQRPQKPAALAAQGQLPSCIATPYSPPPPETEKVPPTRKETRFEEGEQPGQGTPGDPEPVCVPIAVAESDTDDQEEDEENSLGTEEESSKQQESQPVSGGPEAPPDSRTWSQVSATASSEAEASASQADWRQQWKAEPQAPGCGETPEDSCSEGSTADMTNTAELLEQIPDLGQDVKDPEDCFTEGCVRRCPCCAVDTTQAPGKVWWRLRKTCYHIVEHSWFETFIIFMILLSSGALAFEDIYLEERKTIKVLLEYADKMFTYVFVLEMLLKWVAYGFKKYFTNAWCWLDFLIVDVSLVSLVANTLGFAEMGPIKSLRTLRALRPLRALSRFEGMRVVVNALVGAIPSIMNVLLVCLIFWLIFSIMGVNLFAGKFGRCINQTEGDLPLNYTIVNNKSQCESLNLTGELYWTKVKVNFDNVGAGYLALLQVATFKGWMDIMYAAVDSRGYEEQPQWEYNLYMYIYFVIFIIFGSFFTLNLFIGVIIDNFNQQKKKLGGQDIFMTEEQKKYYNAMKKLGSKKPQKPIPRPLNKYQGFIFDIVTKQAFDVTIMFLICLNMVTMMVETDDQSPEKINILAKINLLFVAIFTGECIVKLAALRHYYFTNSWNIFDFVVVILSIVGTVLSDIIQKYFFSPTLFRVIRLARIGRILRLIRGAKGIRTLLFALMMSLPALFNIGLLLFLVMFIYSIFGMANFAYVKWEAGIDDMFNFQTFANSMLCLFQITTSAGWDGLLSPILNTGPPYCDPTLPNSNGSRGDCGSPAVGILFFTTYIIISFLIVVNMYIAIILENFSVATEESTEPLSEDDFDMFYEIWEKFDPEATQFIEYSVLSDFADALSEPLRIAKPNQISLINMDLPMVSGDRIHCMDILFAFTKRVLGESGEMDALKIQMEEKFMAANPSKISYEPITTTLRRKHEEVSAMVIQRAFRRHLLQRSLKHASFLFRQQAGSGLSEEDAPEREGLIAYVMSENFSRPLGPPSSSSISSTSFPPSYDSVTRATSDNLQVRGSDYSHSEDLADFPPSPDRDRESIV

CN1C(=O)c2c(O)c(=O)c(C(=O)NCc3ccc(F)cc3F)cn2N2CCCC[C@@H]12 [Compound I-015]
EC50 [1]: 3.6 nM
half-life ([2]; read-out: elimination half-life (t½) (converted)): 12.3 h
clearance ([2]; read-out: total body clearance (CLtot)): 0.111 mL/min/kg
FC mutant strain 1 [3]: 51
residual rate [4]: 103
FC mutant strain 2 [5]: 18
FC for the mutant strain (T97A/E138T/G140S/Q148H) [6]: 10
maximum peak current (INa) with compound with respect to vehicle [7]: 92.1%
FC for the mutant strain 3 [8]: 7.7

From US11649236B2, “Polycyclic carbamoylpyridone derivative” (Shionogi & Co., Ltd., priority 2018, dated 2023)
